Experimental data published in patent publication US20240139220A1, “TREATMENT OF HPV INFECTION” (priority 2022, published 2024).

Assay: Ex vivo permeation and penetration across porcine vaginal tissue (Franz diffusion cells, IVPT)
Assay type: in vitro ADME
Details: 0.1% dose; porcine and human tissues (FIG. 116)
Excerpt: FIG. 116 is an in vitro tissue permeation test in vaginal tissue comparing Compound II to ABI-1968. […] Bars B and C show the tissue penetration of a 0.1% Compound II gel in […]. […] This may be a contributing factor to the performance of ABI-1968 in clinical studies. […] This is described in Example 41.
Freshly harvested porcine vaginal tissue was procured from local slaughterhouse in an ice box. The vaginal tissue was cut open to expose the mucosal surface and tissue was cleaned by gentle flow of PBS pH 7.4. The porcine vaginal tissue was cut into circular portions (approximately 2 cm^2) with help of a […] punch.
The circular portion of tissue was sandwiched between two chambers of a Franz diffusion cell with an active diffusion area of 1 cm^2, and the mucosal layer was exposed to the donor chambers. The resistance across porcine vaginal tissue was measured using a wave form generator to ensure the integrity of the tissue segment used for the permeation study. Porcine vaginal tissue with resistance of ≥3 KΩ.cm^2 was used for study. The receiver chamber was filled with 8 ml of 5% solutol PBS 7.4 pH, which was stirred at 600 rpm with a 3 mm magnetic stir bar and the temperature was maintained at 37° C. with a circulating water bath.
The ˜200 mg of gel was filled into tared 1 mL syringe and gel was dispensed to donor chamber. The gel was spread on to mucosal surface with pre weighed applicator. After loading and spreading of the gel onto surface of mucosal surface, the weight of 1 mL syringe and applicator was noted to determine the exact amount of gel loaded into donor chamber.
Time course (2 h, 4 h and 8 h) porcine vaginal permeation studies were performed. After loading gel, 500 μL samples were withdrawn from the receiver compartment at different time intervals and each time an equal volume of fresh receiver media was used to replace withdrawn samples. The sample withdrawn at each time interval were stored immediately in −20° C. until analysis. After 2, 4 and 8 h, the formulation was removed from the donor chamber with help of syringe and cleaned with cotton swab. The tissue was removed and washed gently with wash solution (50% methanol in water) 5 times and alternatively cleaning with cotton swab.
An 8 mm punch of active diffusion area of washed porcine vaginal tissue was removed, weighed and transferred into a tube. This tube was immediately placed into dry ice for ˜15 min. After specified time, tissue was removed and placed in precooled dish. The tissue was minced into smaller pieces on a dish with a precooled surgical blade. The minced tissue was transferred to sample tubes and dish was rinsed with 1 ml of 5% solutol in PBS 7.4 pH and transferred to same tissue sample tube. These tubes were stored in −70° C. until analysis.
The samples stored at −20° C. was removed and thawed at room temperature for 30 min. The drug from receptor fluid was centrifuged at 13000 rpm for 5 min and to 200 μL of supernatant equal volume of extraction solvent was added. These samples were centrifuged at 13000 rpm for 5 min and supernatant was transferred into vials for analysis.
The minced tissue samples stored at −70° C. were removed and thawed at room temperature for ˜90 min. The samples were kept for shaking at room temperature for 4 h in BioShaker. After 4 h, samples were centrifuged at 13000 rpm for 5 min. To 100 μL of supernatant, 400 μL of extraction solvent was added and vortexed for 2 min. […]

Question: With `CCOC(=O)[C@H](C)NP(=O)(COCCn1cnc2c(OC)nc(N)nc21)OCc1ccccc1.O=C(O)/C=C/C(=O)O` (mixture of isomers) [Compound I monofumarate, (±)-(2S)-ethyl-2-((((2-(2-amino-6-methoxy-9H-purin-9-yl)-ethoxy)-methyl)-(benzyloxy)-phosphoryl)-amino)-propionate monofumarate] as the compound, how does the “Concentration in vaginal tissue” value read?
Answer: 40 to 85 ng/mL
